Measurements published in patent publication US10414778B2, “Methods for treatment of resistant cancer” (New Mexico Tech University Research Park Corporation, priority 2016, dated 2019).
Where two headings read alike, the source gives them in different places.

Assays:
[1] = tested on: MCF-7 cells; assay: MTT in vitro growth inhibition assay, MCF-7; format: cell-based, human; conditions: Homo sapiens, two independent experiments
Description: (§1) Human cancer cell lines were obtained from the American Type Culture Collection (ATCC, Manassas, Va., USA), the European Collection of Cell Culture (ECACC, Salisbury, UK), and the Deutsche Sammlung von Mikroorganismen und Zellkulturen (DSMZ, Braunschweig, Germany). Human cervical adenocarcinoma HeLa cells were cultured in DMEM supplemented with 10% fetal bovine serum (FBS). Human mammary carcinoma MCF-7 cells were cultured in RPMI supplemented with 10% FBS. The U87 cells (ATCC HTB-14) were cultured in DMEM culture medium, while the A549 cells (DSMZ ACC107) were cultured in RPMI culture medium supplemented with 10% heat-inactivated FBS. The GBM Hs683 (ATCC HTB-138) and the T98G (ATCC CRL-1690) cell lines were cultivated in DMEM supplemented with 10% FBS. The GBM U251 cells (ECACC code 09063001) were cultured in 10% MEM. The human uterine sarcoma MES-SA and MES-SA/Dx5 cells were cultured in RPMI-1640 medium supplemented with 10% FBS with MES SA/Dx5 maintained in the presence of 500 nM Doxorubicin (Sigma™). The U373 glioblastoma cells (ECACC 08061901) were cultured in RPMI culture medium supplemented with 10% heat-inactivated FBS.
Spirodienones 4a-m were subjected to in vitro growth inhibition 3-(4,5-dimethylthiazol-2-yl)-2,5-diphenyltetrazolium bromide (MTT) assays against two cell lines, human HeLa cervical and MCF-7 breast adenocarcinomas.
(§2) All compounds were dissolved in DMSO at a concentration of either 100 mM or 50 mM prior to cell treatment. The cells were trypsinized and seeded at various cell concentrations depending on the cell type. The cells were grown for 24 h to 72 h, treated with compounds at concentrations ranging from 0.001 to 100 μM, and incubated for 48, 72, or 96 h in 100 or 200 μL media depending on the cell line used. Cells treated with 0.1% DMSO were used as a negative control, and cells treated with 1 μM phenyl arsine oxide (PAO) were used as a positive control.
To determine the activities of the compounds of the invention toward cancer cells, cell lines treated with different compounds were subjected to an in vitro MTT growth assay using human cervical cancer (HeLa) and human adenocarcinoma (MCF-7) cell lines. The MTT growth assay is a colorimetric assay that measures the metabolic activity of cells via reduction of 3-(4,5-dimethylthiazol-2-yl)-2,5-diphenyltetrazolium bromide (MTT). The reduction of MTT occurs in metabolically-active cells and is characterized by a purple color, which can be quantified via spectrophotometry. A higher absorbance reading indicates a metabolically-active cell, while a low absorbance reading indicates low metabolic activity due to, for example, inhibition of cellular proliferation or cell death.
The values in TABLE 4 are the mean and standard deviation calculated from two independent experiments, which were performed in 4 replicates.

[2] = tested on: Hs683 cells; assay: MTT growth inhibition, Hs683 glioma; format: cell-based, human; conditions: Homo sapiens
Description: as §1, §2
Compound 4l was evaluated for in vitro growth inhibition against a panel of cancer cell lines, including U373, U251, U87, T98G, human GBM, and A549 NSCLC. […] Compound 4l was also evaluated for in vitro growth inhibition against the apoptosis-sensitive tumor model Hs683 anaplastic oligodendroglioma as a reference.
(§3) Due to their high potencies, compounds 5l and 5g were used to determine the effects of the compounds on drug-resistant tumor cells. Drug-resistant cell lines (i.e., glioma: Hs683, U373, U251, U87, T98G; lung cancer: A549, H2073; uterine carcinoma: MES-SA/Dx5) were complemented with drug-sensitive cell lines, H1993 lung cancer and MES-SA uterine cancer, which were used as controls. Bulbispermine and paclitaxel were also used as controls. The GI50 values were calculated after 48-96 hours of treatment with the indicated compounds in replicate using the MTT growth assay.

[3] = tested on: MES-SA cells; assay: MTT growth inhibition, MES-SA uterine sarcoma; format: cell-based; conditions: Homo sapiens, MES-SA, MTT
Description: as §1
as §2, with “control. […]” for “control.”
Drug-resistant cell lines (i.e., glioma: Hs683, U373, U251, U87, T98G; lung cancer: A549, H2073; uterine carcinoma: MES-SA/Dx5) were complemented with drug-sensitive cell lines, H1993 lung cancer and MES-SA uterine cancer, which were used as controls. […] The GI50 values were calculated after 48-96 hours of treatment with the indicated compounds in replicate using the MTT growth assay.

[4] = tested on: MES-SA/Dx5 cells; assay: MTT growth inhibition, MDR uterine sarcoma MES-SA/Dx5; format: cell-based, human; conditions: for GI50: Homo sapiens, MES-SA/Dx5, MTT
Description: as §1, §2
Compound 4l was also evaluated against the MDR uterine sarcoma cell line (MES-SA/Dx5 to evaluate whether the compounds of the invention were substrates for the MDR cancer efflux systems. The MES-SA/Dx5 cell line was established from the parent uterine sarcoma MES-SA, grown in the presence of increasing concentrations of doxorubicin and is known to be resistant to a number of P-gp substrates.
The selection of doxorubicin-resistant cells (MES-SA/Dx5 cell line) was performed by splitting the cells and allowing the cells to adhere overnight. The next day, the cells were initially exposed to a DOX concentration of 100 nM, which represented the GI50 concentration. The cells were maintained at this DOX concentration until their growth rate reached that of the untreated cells. The DOX concentration was then increased in two-fold increments following the same growth criteria at each concentration to a final DOX concentration of 500 nM. Each new DOX concentration required approximately 2 passages to reach the growth rate of the untreated cells.
as §3

[5] = tested on: five GBM cell cultures (U373, T98G, U251, Hs683, U87); assay: MTT growth curves of five GBM cell cultures (populations resistant to proapoptotic agents); format: cell-based, human
Excerpt: Cells resistant to various pro-apoptotic stimuli often contain a sensitive population that quickly response to pro-apoptotic agents. However, a significant portion of the cells in a culture resist the effects of pro-apoptotic agents even at concentrations 100- or 1000-fold their GI50 values.

`O=C1C=C[C@]23CC[N@](Cc4c2sc2ccccc42)[C@H]3C1` [Compound 5l] gave a GI50 ([1]; MCF7, Table 4, 48-hour treatment, mean and standard deviation, read-out: MCF-7 Cell Viability GI50) of 4.7 ± 0.1 µM, a GI50 ([2]; Hs 683, Table 5, 48-96 hours of treatment, read-out: GI50, Glioma Hs683) of 6 µM and a GI50 ([3]; Table 5, 48-96 hours of treatment, read-out: GI50, Sarcoma MES-SA) of 2 µM. The GI50 ([4]; Table 5, 48-96 hours of treatment, read-out: GI50, Sarcoma MES-SA/Dx5) was 7 µM and the “dose-dependent effects against cell populations resistant to proapoptotic agents” value ([5]; U373, T98G, U251, Hs683, U87, MTT, FIG. 8) was “dose-dependent effects”.

With `O=C1C=CC2(C=C1)CCN(C(=O)C(F)(F)F)Cc1c2sc2ccccc12` [Compound 4l] the GI50 ([1]; MCF7, MCF-7, 48 h treatment, ± SD, read-out: cell viability GI50, MCF-7) was 7 ± 1 µM, the GI50 ([2]; Hs 683, Table 3, 48-96 h treatment, read-out: GI50 in vitro values, glioma Hs683) was 5 µM and the GI50 ([3]; Table 3, 48-96 h treatment, read-out: GI50 in vitro values, uterine sarcoma MES-SA) was 5 µM. For the same compound, the GI50 ([4]; Table 3, 48-96 h treatment, read-out: GI50 in vitro values, uterine sarcoma MES-SA/Dx5) was 5 µM, the “variation in activity, MDR cell line versus parent cell line” value ([4]; MES-SA/Dx5 versus MES-SA) was “small variation in activity” and the “resistant populations in growth curves of GBM cell cultures” value ([5]; 5 GBM cell lines, FIG. 1, one experiment in six replicates) was “absence of such resistant populations”.
